By IC20 is commonly meant the concentration at which the effect reaches the 20% level. The low end stands for an effect from little substance, the high end for a need for much substance.

Data set [1] concerns A549 cells. In words: in vitro. The format is cell-based, human. How it is done:
(§1) A549 cells (Korean Cell Line Bank), the human lung cancer tissue derived cell line, were cultured in 100 mm dish containing RPMI (Gibro-BRL, USA) supplemented with 10% FBS until the confluency reached 80%. […] The concentration of vehicle was up to 0.1% in every experiment.
(§2) MTT assay was performed with A549 cell line according to the method of Mossman, et al (J. Immunol. Methods, 65, 55-63, 1983).
(§3) 48 hours later, 5 mg/ml of MTT (3-4,5-dimethylthiazol-2,5-diphenyltetra zolium bromide) was added thereto, followed by culture at 37° C. for 3 hours. Then, the medium was discarded and the formed formazan crystal was dissolved in 500 μl of DMSO, which was aliquoted in 96-well plate. OD540 was measured.

Data set [2] relates to hsa-miR-28-5p (MIMAT0000085). In words: Micro RNA microarray, change of hsa-miR-28-5p expression. The format is cell-based, human. The note with it: for Change (Fold) hsa-miR-28-5p: A549, treated at IC20 for 48 hours, microarray, versus control.
Data set [3] relates to A549 cells. In words: Micro RNA expression pattern by oligo microarray (Agilent Human miRNA array v16.0, 1347 human micro RNAs). The format is cell-based. The note with it: A549, treated at IC20 for 48 hours; for number of up-regulated micro RNAs out of 1347 / up-regulated micro RNA, share of 1347 micro RNAs: signal ratio to control higher than 1.5; for down-regulated micro RNA, share of 1347 micro RNAs / number of down-regulated micro RNAs out of 1347: signal ratio to control lower than 0.66.

For data set [4], the system named is hsa-miR-590-5p (MIMAT0003258). In words: Micro RNA microarray, change of hsa-miR-590-5p expression. The settings on record: for Change (Fold) hsa-miR-590-5p: A549, treated at IC20 for 48 hours, microarray, versus control. The format is cell-based, human.
The nature of a further data set: in vitro. The format is cell-based, human. The note with it: human. The protocol: as §1, §2, §3

Like-named read-outs stand apart in the source and are kept apart here.

In the case of `CCCC=O` [butylaldehyde], in the data set with A549 cells [1], the IC20 came out at 4600 µM. Further, the “Change (Fold) hsa-miR-28-5p” value in data set [2] came to 0.962 Fold. Moreover, in the data set on A549 cells [3], the “number of up-regulated micro RNAs out of 1347” value was 14; the “up-regulated micro RNA, share of 1347 micro RNAs” value (from here on “up-regulated micro RNA, share”) is recorded as 1.04%; the “down-regulated micro RNA, share of 1347 micro RNAs” value (“down-regulated micro RNA, share” below) came to 0.82%; the “number of down-regulated micro RNAs out of 1347” value is recorded as 11. For the same compound, in data set [4], the “Change (Fold) hsa-miR-590-5p” value was 0.563 Fold. Besides, in data set [4] (result in words), the “expression level of hsa-miR-590-5p compared to the normal control group” value is reported as “down-regulated”.
Compound `CCCCCCCCC=O` [nonanal] registered an IC20 at 48 h in the data set “in vitro” of 440 µM. The “Change (Fold) hsa-miR-28-5p” value in data set [2] was determined as 1.569 Fold. Further, the “expression level of hsa-miR-28-5p compared to the normal control group” value in data set [2] (result in words) is on record as “up-regulated”. Besides, in the data set with A549 cells [3], the “number of up-regulated micro RNAs out of 1347” value is recorded as 6; the “up-regulated micro RNA, share” value is on record as 0.45%; the “down-regulated micro RNA, share” value is on record as 0.00%; the “number of down-regulated micro RNAs out of 1347” value is reported as 0. In data set [4], the “Change (Fold) hsa-miR-590-5p” value was found to be 0.966 Fold. For the same compound, the “expression level of hsa-miR-590-5p compared to the normal control group” value in data set [4] (result in words) is given as “down-regulated”.
On to `CCCCCCCC=O` [octanal], for which, in data set [2], the “Change (Fold) hsa-miR-28-5p” value is given as 0.755 Fold. In addition, the “expression level of hsa-miR-28-5p compared to the normal control group” value in data set [2] (result in words) is “down-regulated”. In the data set with A549 cells [3], the “number of up-regulated micro RNAs out of 1347” value is “one”; the “up-regulated micro RNA, share” value was found to be 0.07%; the “down-regulated micro RNA, share” value is 1.04%; the “number of down-regulated micro RNAs out of 1347” value is 14. Moreover, the “Change (Fold) hsa-miR-590-5p” value in data set [4] is on record as 0.508 Fold. Further, in data set [4] (result in words), the “expression level of hsa-miR-590-5p compared to the normal control group” value is recorded as “down-regulated”.
`CCCCCC=O` [hexanal]: in data set [2], the “expression level of hsa-miR-28-5p compared to the normal control group” value is reported as “up-regulated”. Moreover, in the data set on A549 cells [3], the “number of up-regulated micro RNAs out of 1347” value was found to be 5; the “up-regulated micro RNA, share” value was 0.37%; the “down-regulated micro RNA, share” value is listed as 0.07%; the “number of down-regulated micro RNAs out of 1347” value is 1. The “expression level of hsa-miR-590-5p compared to the normal control group” value in data set [4] is listed as “up-regulated”.
As to `CCC=O` [propionaldehyde], in data set [2] (result in words), the “expression level of hsa-miR-28-5p compared to the normal control group” value is on record as “up-regulated”. Moreover, in the data set on A549 cells [3], the “number of up-regulated micro RNAs out of 1347” value was found to be 13; the “up-regulated micro RNA, share” value was 0.97%; the “down-regulated micro RNA, share” value is on record as 0.15%; the “number of down-regulated micro RNAs out of 1347” value is given as 2.
As to `CCCCCCC=O` [heptanal], the “Change (Fold) hsa-miR-28-5p” value in data set [2] turned out to be 0.922 Fold. Further, the “expression level of hsa-miR-28-5p compared to the normal control group” value in data set [2] (result in words) was “down-regulated”. In the data set with A549 cells [3], the “number of up-regulated micro RNAs out of 1347” value is 0; the “up-regulated micro RNA, share” value came out at 0.00%; the “down-regulated micro RNA, share” value amounted to 0.30%; the “number of down-regulated micro RNAs out of 1347” value was 4. In addition, the “Change (Fold) hsa-miR-590-5p” value in data set [4] is 0.512 Fold. Also, in data set [4] (result in words), the “expression level of hsa-miR-590-5p compared to the normal control group” value is listed as “down-regulated”.
Regarding `CCCCC=O` [valeraldehyde], the “Change (Fold) hsa-miR-28-5p” value in data set [2] worked out at 1.660 Fold. In data set [2] (result in words), the “expression level of hsa-miR-28-5p compared to the normal control group” value was “up-regulated”. Besides, in the data set with A549 cells [3], the “number of up-regulated micro RNAs out of 1347” value was found to be 8; the “up-regulated micro RNA, share” value worked out at 0.59%; the “down-regulated micro RNA, share” value was 0.15%; the “number of down-regulated micro RNAs out of 1347” value is 5. Moreover, in data set [4], the “Change (Fold) hsa-miR-590-5p” value was 1.253 Fold. Further, the “expression level of hsa-miR-590-5p compared to the normal control group” value in data set [4] (result in words) is given as “up-regulated”.

These data come from patent US8716192B2, “Micro RNAs for identification of exposure to lower aliphatic saturated aldehydes and the method of identification using thereof” (Korea Institute of Science and Technology, priority 2012, dated 2014).
